Test systems include SF-539; HCT-15; NCI-H23; MOLT-4; RXF 393; A498; KM12; HOP-92; NCI-H460; NCI/ADR-RES; SF-295; SN12C; K562; SK-OV-3; CCRF-CEM; OVCAR-8; TK-10; 786-0; SR.
Test in all cases: NCI-60 cell line screen, 48 h

Four molecules from ChEMBL document CHEMBL1201862, “PubChem BioAssay data set” (2004) can be followed below.

Molecules are shown by their SMILES.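 Compound exposure: 48 hours, 5 concentrations, 96-well plates. GI50 is the concentration that inhibits growth by half.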 Activity calls are given as the source filed them. No stated cut-off is given here; in the data, active = GI50 up to about 1.1 µM and inactive = higher. Where a SMILES comes first, the peptide text is derived from it. [ ]: non-standard residue; d: D form. Phe(4-NO2) = N[CH](Cc1ccc([N+](=O)[O-])cc1)C(=O)O

`Cn1c(-c2ccccc2)cc(-c2cccs2)c1-c1cccs1`: the GI50 is > 100 µM (inactive) in the assay on SF-539; 46.2 µM in the assay with HCT-15; 49.3 µM (inactive) with NCI-H23; 48.9 µM (inactive) with MOLT-4; > 81.3 µM (inactive) in the assay on RXF 393; > 100 µM (inactive) in the assay on A498. Moreover, the GI50 with KM12 is 22.3 µM (inactive); in the assay on HOP-92, > 29.2 µM (inactive); in the assay with NCI-H460, 71.9 µM (inactive); in the assay with NCI/ADR-RES, > 100 µM (inactive); in the assay with SF-295, > 100 µM (inactive); with SN12C, > 100 µM (inactive). Moreover, the GI50 is 51.6 µM (inactive) in the assay on K562, > 100 µM (inactive) with SK-OV-3, 18.2 µM (inactive) in the assay on CCRF-CEM and > 100 µM (inactive) in the assay on OVCAR-8.

With `c1ccc(C2OCCO2)c(OCCOc2cc(OCCOc3ccccc3C3OCCO3)c(OCCOc3ccccc3C3OCCO3)cc2OCCOc2ccccc2C2OCCO2)c1`, the GI50 was 10.7 µM (inactive) in the assay on SF-539; greater than 100 µM with HCT-15; 11.3 µM (inactive) in the assay on NCI-H23; > 100 µM (inactive) with MOLT-4; 14.7 µM (inactive) in the assay with TK-10; 5.35 µM (inactive) with RXF 393. Moreover, the GI50 was 15.8 µM (inactive) in the assay with A498; 91.8 µM (inactive) in the assay with KM12; 5.28 µM (inactive) in the assay on HOP-92; 24.3 µM (inactive) with NCI-H460; 17.9 µM (inactive) with SF-295; > 100 µM (inactive) with SN12C. For the same molecule, the GI50 is 4.67 µM (inactive) in the assay with 786-0; > 100 µM (inactive) in the assay on K562; 2.76 µM (inactive) in the assay on SK-OV-3; > 100 µM (inactive) with SR; > 100 µM (inactive) with CCRF-CEM; 13.9 µM (inactive) in the assay on OVCAR-8.

Consider `COC(=O)C(=O)C(C(=O)C(=O)Nc1ccc(Cl)cc1Cl)c1nc2ccc(Cl)cc2nc1O` (configuration not stated), for which the GI50 in the assay with SF-539 was > 100 µM (inactive); in the assay with HCT-15 it was greater than 100 µM; in the assay with NCI-H23, > 100 µM (inactive); in the assay on MOLT-4 it was 82.8 µM (inactive); in the assay with TK-10 it was 69.8 µM (inactive); in the assay on KM12, > 100 µM (inactive). Also, the GI50 is 58.5 µM (inactive) in the assay on HOP-92; > 100 µM (inactive) in the assay with NCI-H460; > 100 µM (inactive) in the assay on NCI/ADR-RES; > 100 µM (inactive) in the assay on SF-295; > 100 µM (inactive) in the assay on SN12C; > 100 µM (inactive) in the assay on 786-0. Besides, the figures for the GI50 in the assay with SK-OV-3, in the assay with CCRF-CEM and with OVCAR-8 were > 100 µM (inactive), 69.7 µM (inactive) and > 100 µM (inactive), respectively.

Take `CC(NC(=O)C(Cc1ccc([N+](=O)[O-])cc1)NC(=O)C(N)CCCCN)C(=O)NC(Cc1ccc([N+](=O)[O-])cc1)C(N)=O` (configuration not stated) (H-K[Phe(4-NO2)]A[Phe(4-NO2)]-NH2; configuration not given here): the GI50 with SF-539 is 58.1 µM (inactive); in the assay with HCT-15, 56.6 µM; in the assay with NCI-H23, 85.3 µM (inactive); in the assay with MOLT-4, > 31.6 µM (inactive); with TK-10 it was > 59.4 µM (inactive); in the assay with RXF 393, 39.2 µM (inactive). Further, the GI50 in the assay with A498 is 85.5 µM (inactive); in the assay with KM12, 23.4 µM (inactive); in the assay with HOP-92, 28.3 µM (inactive); with NCI-H460, 20.6 µM (inactive); in the assay on NCI/ADR-RES it was 69 µM (inactive); in the assay on SF-295, 32.7 µM (inactive). Moreover, the GI50 with SN12C is 24.9 µM (inactive); with 786-0 it was 21.9 µM (inactive); with K562, > 20.5 µM (inactive); with SK-OV-3, > 100 µM (inactive); in the assay with CCRF-CEM, > 100 µM (inactive); in the assay on OVCAR-8 it was 23.9 µM (inactive).
